From ChEMBL document CHEMBL6074677, “Development of dual V1a/V2 antagonists containing triazolobenzazepine scaffold” (Eur J Med Chem, 2025) come the findings set out here.

In general, Ki refers to a measure of affinity in units of concentration, obtained from inhibition or displacement. The term IC50 denotes the point on the concentration scale where inhibition reaches its midpoint. Lower therefore signals greater potency in that assay. By Papp A→B is commonly meant how fast a substance crosses the layer from the apical side.

The target in one series is Vasopressin V2 receptor (Homo sapiens, UniProt P30518). Nature of the series: Displacement of [3H]AVP from human vasopressin V2 receptor expressed in human 1321N1 cells assessed as inhibition constant. The format is cell-based. In general terms: Displacement assays read how much labelled ligand stays bound in the presence of the test substance.
Vasopressin V2 receptor, sequence (P30518 whole entry): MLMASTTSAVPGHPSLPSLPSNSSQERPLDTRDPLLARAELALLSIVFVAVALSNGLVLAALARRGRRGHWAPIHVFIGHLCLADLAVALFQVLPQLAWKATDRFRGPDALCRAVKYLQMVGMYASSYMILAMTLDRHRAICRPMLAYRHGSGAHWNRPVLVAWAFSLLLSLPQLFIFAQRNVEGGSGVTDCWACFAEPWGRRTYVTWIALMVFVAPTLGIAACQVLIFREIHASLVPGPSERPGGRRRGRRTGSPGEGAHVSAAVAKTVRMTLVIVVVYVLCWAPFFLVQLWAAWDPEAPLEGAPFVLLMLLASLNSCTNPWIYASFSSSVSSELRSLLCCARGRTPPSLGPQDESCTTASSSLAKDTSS
In a further series the target is Vasopressin V1a receptor (Homo sapiens, UniProt P37288). Description: Displacement of [3H]AVP from human vasopressin V1a receptor expressed in human 1321N1 cells assessed as inhibition constant. In kind it is cell-based.
Vasopressin V1a receptor, sequence (P37288 whole entry): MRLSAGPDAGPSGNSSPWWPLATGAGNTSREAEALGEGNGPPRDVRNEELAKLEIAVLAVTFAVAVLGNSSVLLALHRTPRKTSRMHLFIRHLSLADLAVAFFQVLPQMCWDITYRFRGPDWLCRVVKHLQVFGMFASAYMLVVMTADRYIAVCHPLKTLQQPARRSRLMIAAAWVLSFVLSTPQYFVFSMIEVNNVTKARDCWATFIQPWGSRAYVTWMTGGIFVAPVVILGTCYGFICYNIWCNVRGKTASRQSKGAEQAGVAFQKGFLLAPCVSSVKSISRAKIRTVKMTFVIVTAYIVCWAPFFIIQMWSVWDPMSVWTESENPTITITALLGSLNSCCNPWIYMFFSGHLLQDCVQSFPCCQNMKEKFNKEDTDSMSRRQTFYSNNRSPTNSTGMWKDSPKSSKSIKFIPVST
Series [1] is described as follows: Metabolic stability in mouse liver microsomes assessed as intrinsic clearance at 1 uM in presence of NADPH. The format is ADME, Microsome. The note with it: read-out: CLH. For orientation: Liver microsomes are a subcellular fraction often used to study metabolism.
The nature of series [2]: Metabolic stability in human liver microsomes assessed as intrinsic clearance at 1 uM in presence of NADPH. In kind it is ADME, Microsome. The note with it: read-out: CLH.
Series [3] can be described thus: Metabolic stability in rat liver microsomes assessed as intrinsic clearance at 1 uM in presence of NADPH. In kind it is ADME, Microsome. The note with it: read-out: CLH.
In series [4] the target is Voltage-gated inwardly rectifying potassium channel KCNH2 (Homo sapiens, UniProt Q12809). Nature of the series: Inhibition of human ERG expressed in CHO cells at -80 mV holding potential measured for 7 to 10 mins by automated patch clamp method. In kind it is toxicity, cell-based.
Voltage-gated inwardly rectifying potassium channel KCNH2, sequence (Q12809 whole entry): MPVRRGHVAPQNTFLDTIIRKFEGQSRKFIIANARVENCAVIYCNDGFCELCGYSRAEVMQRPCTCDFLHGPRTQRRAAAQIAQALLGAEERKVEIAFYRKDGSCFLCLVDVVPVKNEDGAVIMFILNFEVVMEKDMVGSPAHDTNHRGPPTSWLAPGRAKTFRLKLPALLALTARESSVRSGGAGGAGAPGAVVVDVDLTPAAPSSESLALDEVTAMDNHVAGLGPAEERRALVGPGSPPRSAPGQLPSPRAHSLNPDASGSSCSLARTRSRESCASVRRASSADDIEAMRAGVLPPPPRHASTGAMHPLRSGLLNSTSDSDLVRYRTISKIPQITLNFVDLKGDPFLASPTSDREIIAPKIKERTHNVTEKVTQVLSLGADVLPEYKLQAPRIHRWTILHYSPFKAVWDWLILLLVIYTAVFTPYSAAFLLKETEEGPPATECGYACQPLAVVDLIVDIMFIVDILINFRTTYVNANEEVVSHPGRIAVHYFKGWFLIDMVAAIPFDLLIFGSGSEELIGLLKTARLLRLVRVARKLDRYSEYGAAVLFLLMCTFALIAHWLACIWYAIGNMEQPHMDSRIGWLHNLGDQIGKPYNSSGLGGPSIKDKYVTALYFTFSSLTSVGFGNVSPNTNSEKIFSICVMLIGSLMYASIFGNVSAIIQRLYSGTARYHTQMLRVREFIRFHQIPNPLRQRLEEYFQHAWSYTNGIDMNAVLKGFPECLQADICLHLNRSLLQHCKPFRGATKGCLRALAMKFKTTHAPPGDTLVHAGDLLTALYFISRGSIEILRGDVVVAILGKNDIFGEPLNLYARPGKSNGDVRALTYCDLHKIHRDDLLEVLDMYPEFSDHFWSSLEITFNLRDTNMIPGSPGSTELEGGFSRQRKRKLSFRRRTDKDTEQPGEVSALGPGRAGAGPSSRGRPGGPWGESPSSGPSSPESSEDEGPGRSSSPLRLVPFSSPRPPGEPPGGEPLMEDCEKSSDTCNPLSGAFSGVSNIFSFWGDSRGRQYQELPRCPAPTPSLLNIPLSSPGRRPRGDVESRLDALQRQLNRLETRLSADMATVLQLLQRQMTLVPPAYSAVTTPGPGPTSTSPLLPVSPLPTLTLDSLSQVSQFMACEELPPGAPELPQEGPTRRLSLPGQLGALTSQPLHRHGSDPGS
Series [5] can be described thus: Apparent permeability across apical to basolateral side in vinblastine treated human Caco-2 cells incubated for 15 to 60 mins by HPLC analysis. The format is ADME, cell-based. The note with it: time 15-60 min. (Caco-2 monolayers are a common model of the intestinal barrier.)

Structures are written as SMILES.

`Clc1ccc2c(c1)CC1(CCCO1)Cc1nnc(N3CCN(c4cccc5c4OCC5)CC3)n1-2` (configuration not stated): the Ki at Vasopressin V2 receptor is 5.1 nM; at Vasopressin V1a receptor, 1.4 nM.
In the case of `COC1(c2ccccc2)CCN(c2nnc3n2-c2ccc(Cl)cc2CC(C(N)=O)C3)CC1` (configuration not stated), the microsomal CLint at 1 µM in series [1] turned out to be 13.9 µL/min/mg; in series [2] it was 3 µL/min/mg; in series [3] it was 7.1 µL/min/mg. Further, the inhibitory constant (Ki) turned out to be 1610 nM at Vasopressin V2 receptor and 1.3 nM at Vasopressin V1a receptor.
Taken in the same sequence, the figures for `NC(=O)C1Cc2cc(Cl)ccc2-n2c(nnc2N2CCC(Oc3ccccn3)CC2)C1` (configuration not stated) were 6.2 µL/min/mg, 0.5 µL/min/mg, 7.6 µL/min/mg, 3620 nM and 1.4 nM.
In the same order, the values of `OC1Cc2cc(Cl)ccc2-n2c(nnc2N2CCN(c3cccc4c3OCC4)CC2)C1` (configuration not stated) are 14.3 µL/min/mg, 13.5 µL/min/mg, 26.2 µL/min/mg, 11 nM and 1.4 nM.
With `Clc1ccc2c(c1)CC1(Cc3nnc(C4CCN(c5cccc6c5OCC6)CC4)n3-2)OCCO1`, the Ki on Vasopressin V2 receptor was determined as 4 nM; on Vasopressin V1a receptor, 0.2 nM.
As to `CC1(C)Cc2cccc(N3CCN(c4nnc5n4-c4ccc(Cl)cc4CC4(C5)OCCO4)CC3)c2O1`, the microsomal CLint at 1 µM in series [1] amounted to 99.5 µL/min/mg; in series [2] it was 107 µL/min/mg; in series [3] it was 113 µL/min/mg. In addition, the Ki at Vasopressin V2 receptor was found to be 24 nM; at Vasopressin V1a receptor, 0.82 nM.
The molecule `Cc1nc2c([nH]1)-c1ccccc1N(C(=O)c1ccc(NC(=O)c3ccccc3-c3ccccc3)cc1)CC2` [CONIVAPTAN] displayed an IC50 in series [4] greater than 5000 nM. Moreover, the Papp A→B in series [5] was determined as 2.9 ×10⁻⁶ cm/s.
With `NC(=O)C1Cc2cc(Cl)ccc2-n2c(nnc2N2CCC(N3CCCCC3)CC2)C1` (configuration not stated), the microsomal CLint at 1 µM in series [1], in series [2] and in series [3] was 0.2 µL/min/mg in each case. In addition, the Ki at Vasopressin V1a receptor came out at 98 nM.
With `Clc1ccc2c(c1)CC1(Cc3nnc(C4CCN(c5cccc6c5CCO6)CC4)n3-2)OCCO1`, the results for the Ki at Vasopressin V2 receptor and at Vasopressin V1a receptor were 26 nM and 0.3 nM, respectively.
In the case of `NC(=O)C1Cc2cc(Cl)ccc2-n2c(nnc2N2CCC3(CC2)OCc2ccccc23)C1` (configuration not stated), the Ki on Vasopressin V2 receptor turned out to be 327 nM; on Vasopressin V1a receptor, 2.1 nM.
Consider `Cc1cccc(N2CCN(c3nnc4n3-c3ccc(Cl)cc3CC(C(N)=O)C4)CC2)c1C` (configuration not stated), for which the microsomal CLint at 1 µM in series [1] came out at 9.1 µL/min/mg; in series [2], 5.1 µL/min/mg; in series [3], 14.5 µL/min/mg. The inhibition constant Ki on Vasopressin V2 receptor amounted to 13 nM; at Vasopressin V1a receptor it was 0.65 nM.
With `Clc1ccc2c(c1)CC1(Cc3nnc(N4CCC(c5cccc6c5OCC6)CC4)n3-2)OCCO1`, the Ki at Vasopressin V2 receptor came to 0.7 nM; on Vasopressin V1a receptor, 0.2 nM.
On to `Clc1ccc2c(c1)CC1(Cc3nnc(N4CCN(c5ccccn5)CC4)n3-2)OCCO1`, for which the microsomal CLint at 1 µM was 21.7 µL/min/mg in series [1], 9.1 µL/min/mg in series [2] and 25.4 µL/min/mg in series [3]. In addition, at Vasopressin V2 receptor, the Ki is 4.7 nM. The Papp A→B in series [5] was found to be 39.9 ×10⁻⁶ cm/s.
On to `COc1ccccc1N1CCN(c2nnc3n2-c2ccc(Cl)cc2CC2(C3)OCCO2)CC1`, for which the Ki at Vasopressin V2 receptor was determined as 2 nM; at Vasopressin V1a receptor, 0.4 nM.
In the same order, the values of `O=C1c2ccccc2CCN1C1CCN(c2nnc3n2-c2ccc(Cl)cc2CC2(C3)OCCO2)CC1` are 13 nM and 0.25 nM.
In the case of `Clc1ccc2c(c1)CC1(CCOCC1)Cc1nnc(N3CCN(c4cccc5c4OCC5)CC3)n1-2`, the microsomal CLint at 1 µM was 70.7 µL/min/mg in series [1], 78.3 µL/min/mg in series [2] and 48.2 µL/min/mg in series [3]. For the same molecule, the Ki at Vasopressin V2 receptor came to 1.1 nM; at Vasopressin V1a receptor, 0.41 nM.
Regarding `COC1(c2ccccc2)CCN(c2nnc3n2-c2ccc(Cl)cc2CC2(C3)OCCO2)CC1`, the figures for the microsomal CLint at 1 µM in series [1], in series [2] and in series [3] were 51.7 µL/min/mg, 6.9 µL/min/mg and 62.2 µL/min/mg, respectively. Besides, the Ki at Vasopressin V2 receptor was found to be 11 nM; at Vasopressin V1a receptor, 0.17 nM. In addition, half-maximal inhibition in series [4] (IC50) required 11000 nM. For the same molecule, the Papp A→B in series [5] is 34 ×10⁻⁶ cm/s.
